The record followed here is patent US5401726A, “2'methylidenepyrimidine nucleoside compounds, their use and method for production thereof” (Yoshitomi Pharaceutical Industries, Ltd., priority 1988, dated 1995).

Structures are written as SMILES. ≈ marks a conversion by molar mass, not a printed value.

Data set [1] is described as follows: solubility (general statement). In kind it is physicochemical. Particulars: with respect to pharmaceutical production.
Data set [2] in a line: solubility in saline at 25 mg/ml, room temperature. In kind it is physicochemical.
In another data set the test system is L1210/c; mouse leukemia. The data set can be described thus: MTT cytotoxicity, in vitro cell growth, L1210/c. The data set is classed as cell-based. The settings on record: 72 hr, read-out: IC50 (concentration showing 50% cytotoxity). How it is done:
(§1) Effect of the compounds on in vitro cell growth of various tumor cell lines:
(§2) The assay of cytotoxicity is dependent on the cellular reduction of MTT [3'-(4,5-dimethylthiazol-2-yl)-2,5-diphenyltetrazolium bromide] by the mitochondrial dehydrogenase of viable cells to a blue formazan product which can be measured spectrophotometrically. Cell suspension, 100 μl, containing 10^4 tumor cells with or without test sample was incubated for 72 hr in 5% CO2 -95% air at 37° C. in 96 well microculture plates (Falcol 3072). The 10 μl of MTT (5 mg/ml) in saline was added to each culture well and incubated for 4 hr at 37° C. The formazan crystals were solubilized by the addition of 100 μl of 10% SDS/0.01N HCl to each well, and incubated for 24 hr at 37° C. The plates were then read at 570 nm on the plate reader. The percentage of cytotoxicity was calculated from the formula: [formula]
(§3) 2 '-Deoxy-2'-methylidene-5-fluorocytidine was dissolved in distilled water, and diluted in RPM1 1640 medium. Tumor cell lines were maintained in RPM1 1640 medium (Nissui Seiyaku Co., Ltd., Tokyo, Japan).
(§4) IC50 values gave the concentrations showing the 50% cytotoxity.

Data set [3] relates to PC13; human lung large cell carcinoma. The data set can be described thus: MTT cytotoxicity, in vitro cell growth, PC13. The settings on record: PC-13, 72 hr, read-out: IC50 (concentration showing 50% cytotoxity). The data set is classed as cell-based. How it is done: as §1, §2, §3, §4
Data set [4] has as its system HL60; human promyelocytic leukemia. Briefly: MTT cytotoxicity, in vitro cell growth, HL60. In kind it is cell-based. Particulars: HL-60, 72 hr, read-out: IC50 (concentration showing 50% cytotoxity). How it is done:
as §1, §2, §3, §4

Data set [5] has as its system CCRF-CEM; human T cell leukemia. Briefly: MTT cytotoxicity, in vitro cell growth, CCRF-CEM. In kind it is cell-based. Particulars: 72 hr, read-out: IC50 (concentration showing 50% cytotoxity). How it is done:
as §1, §2, §3, §4

The subject of another data set is B16; mouse melanoma. The data set can be described thus: MTT cytotoxicity, in vitro cell growth, B16. In kind it is cell-based. The settings on record: 72 hr, read-out: IC50 (concentration showing 50% cytotoxity). How it is done:
as §1, §2, §3, §4

Data set [6] relates to U937; human histiocytic leukemia. Briefly: MTT cytotoxicity, in vitro cell growth, U937. The data set is classed as cell-based. The settings on record: U-937, 72 hr, read-out: IC50 (concentration showing 50% cytotoxity). How it is done:
as §1, §2, §3, §4

Data set [7] has as its system MOLT4; human T cell leukemia. The data set can be described thus: MTT cytotoxicity, in vitro cell growth, MOLT4. The data set is classed as cell-based. Particulars: MOLT-4, 72 hr, read-out: IC50 (concentration showing 50% cytotoxity). How it is done: as §1, §2, §3, §4

For `C=C1[C@H](n2ccc(N)nc2=O)O[C@H](CO)[C@H]1O` [2'-deoxy-2'-methylidenecytidine, reference compound], the solubility entry in [1] is listed as “inferior in solubility”. The solubility in saline result in data set [2] is recorded as “not soluble”.
As for `C=C1[C@H](n2cc(F)c(N)nc2=O)O[C@H](CO)[C@H]1O` [Example 1, 2'-deoxy-2'-methylidene-5-fluorocytidine], the IC50 stood at 0.33 µg/mL (≈ 1.28 µM) with L1210/c; mouse leukemia; 1 µg/mL (≈ 3.89 µM) in [3]; 0.04 µg/mL (≈ 0.156 µM) in data set [4]; 0.14 µg/mL (≈ 0.544 µM) in data set [5]; 6.9 µg/mL (≈ 26.8 µM) with B16; mouse melanoma; 0.44 µg/mL (≈ 1.71 µM) in data set [6]. The IC50 in data set [7] is 0.036 µg/mL (≈ 0.14 µM). Moreover, the solubility in saline entry in data set [2] is reported as “easily soluble”.
